Assay [1] has as its target T1, Inhibitor of nuclear factor kappa-B kinase subunit alpha (Homo sapiens) (UniProt O15111).
T1 sequence (whole entry): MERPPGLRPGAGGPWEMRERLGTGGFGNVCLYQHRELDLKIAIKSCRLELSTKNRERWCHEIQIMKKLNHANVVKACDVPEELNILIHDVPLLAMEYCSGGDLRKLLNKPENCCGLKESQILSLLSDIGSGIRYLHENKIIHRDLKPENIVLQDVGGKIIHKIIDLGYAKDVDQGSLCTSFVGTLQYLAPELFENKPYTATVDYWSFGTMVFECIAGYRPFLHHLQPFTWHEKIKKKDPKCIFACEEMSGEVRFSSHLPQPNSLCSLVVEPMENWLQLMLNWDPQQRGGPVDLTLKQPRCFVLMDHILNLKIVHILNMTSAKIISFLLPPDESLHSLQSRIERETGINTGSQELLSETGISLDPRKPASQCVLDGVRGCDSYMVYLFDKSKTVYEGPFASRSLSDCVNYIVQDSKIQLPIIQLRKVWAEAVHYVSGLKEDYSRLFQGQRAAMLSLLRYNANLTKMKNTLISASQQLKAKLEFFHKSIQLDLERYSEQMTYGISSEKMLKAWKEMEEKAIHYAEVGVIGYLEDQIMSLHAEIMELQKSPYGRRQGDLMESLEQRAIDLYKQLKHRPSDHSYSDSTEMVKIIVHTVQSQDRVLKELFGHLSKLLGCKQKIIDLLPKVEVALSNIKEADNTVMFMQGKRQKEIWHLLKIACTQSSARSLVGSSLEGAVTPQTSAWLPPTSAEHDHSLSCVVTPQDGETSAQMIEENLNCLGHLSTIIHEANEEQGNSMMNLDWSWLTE
Description: Selectivity interaction (Ambit KINOMEscan and KiNATiv profiling in Jurkat cells) EUB0000090b CHUK. Particulars: at 1 µM. Format: cell-based.

For assay [2], the target named is RAC-alpha serine/threonine-protein kinase (Homo sapiens, UniProt P31749). Description: Selectivity interaction (KinomeScan (DiscoverX)) EUB0000655a AKT1. Particulars: at 10 µM.
Chain of RAC-alpha serine/threonine-protein kinase (P31749 whole entry): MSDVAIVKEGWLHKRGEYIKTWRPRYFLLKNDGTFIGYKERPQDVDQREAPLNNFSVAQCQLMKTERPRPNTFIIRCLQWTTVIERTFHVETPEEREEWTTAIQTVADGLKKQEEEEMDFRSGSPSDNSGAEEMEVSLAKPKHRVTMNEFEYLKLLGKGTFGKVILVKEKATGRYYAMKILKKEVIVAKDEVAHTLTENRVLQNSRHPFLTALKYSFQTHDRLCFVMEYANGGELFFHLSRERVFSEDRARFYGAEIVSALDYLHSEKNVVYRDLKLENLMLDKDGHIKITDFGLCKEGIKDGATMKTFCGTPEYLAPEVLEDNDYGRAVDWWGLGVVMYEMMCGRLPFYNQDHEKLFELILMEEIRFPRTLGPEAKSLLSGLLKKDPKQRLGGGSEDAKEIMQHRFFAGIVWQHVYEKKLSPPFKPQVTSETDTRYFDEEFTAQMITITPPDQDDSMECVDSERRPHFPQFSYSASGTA
The target in assay [3] is T2, Mitogen-activated protein kinase kinase kinase 3 (Homo sapiens) (UniProt Q99759).
T2 sequence (whole entry): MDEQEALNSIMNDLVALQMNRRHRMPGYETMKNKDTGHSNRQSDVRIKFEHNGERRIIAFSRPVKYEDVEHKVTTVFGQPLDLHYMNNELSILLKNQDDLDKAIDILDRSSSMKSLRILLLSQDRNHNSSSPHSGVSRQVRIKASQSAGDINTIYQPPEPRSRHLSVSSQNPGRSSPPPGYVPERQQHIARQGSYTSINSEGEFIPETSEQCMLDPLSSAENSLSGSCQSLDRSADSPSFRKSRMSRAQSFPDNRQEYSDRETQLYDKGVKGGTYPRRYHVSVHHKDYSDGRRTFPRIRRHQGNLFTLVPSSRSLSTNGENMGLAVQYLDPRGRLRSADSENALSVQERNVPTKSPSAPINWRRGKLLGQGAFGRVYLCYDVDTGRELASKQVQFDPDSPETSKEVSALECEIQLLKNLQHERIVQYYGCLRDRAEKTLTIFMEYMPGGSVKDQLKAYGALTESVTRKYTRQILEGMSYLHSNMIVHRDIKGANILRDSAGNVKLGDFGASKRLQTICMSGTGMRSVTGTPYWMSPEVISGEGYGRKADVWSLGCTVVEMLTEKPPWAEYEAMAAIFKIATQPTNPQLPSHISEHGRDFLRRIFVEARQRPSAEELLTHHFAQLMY
Description: Selectivity interaction (KinomeScan (DiscoverX)) EUB0000655a MAP3K3. Particulars: at 10 µM.

Assay [4] concerns the target Dual specificity tyrosine-phosphorylation-regulated kinase 1B (Homo sapiens, UniProt Q9Y463). Nature of the assay: Selectivity interaction (Enzymatic assay) EUB0001550a DYRK1B.
Assay [5] has as its target Histone-lysine N-methyltransferase SETDB1 (Homo sapiens) (UniProt Q15047). Nature of the assay: Selectivity interaction (PWWP, WD40, and Tudor domain panel (DSLS measurements, literature)) EUB0000270b SETDB1.
Assay [6] concerns the target Serine/threonine-protein kinase RIO2 (Homo sapiens) (UniProt Q9BVS4). Nature of the assay: Selectivity interaction (KinomeScan (DiscoverX)) EUB0000607a RIOK2. Particulars: at 10 µM.
For assay [7], the target named is T3, Serine/threonine-protein kinase 3 (Homo sapiens) (UniProt Q13188).
T3 sequence (whole entry): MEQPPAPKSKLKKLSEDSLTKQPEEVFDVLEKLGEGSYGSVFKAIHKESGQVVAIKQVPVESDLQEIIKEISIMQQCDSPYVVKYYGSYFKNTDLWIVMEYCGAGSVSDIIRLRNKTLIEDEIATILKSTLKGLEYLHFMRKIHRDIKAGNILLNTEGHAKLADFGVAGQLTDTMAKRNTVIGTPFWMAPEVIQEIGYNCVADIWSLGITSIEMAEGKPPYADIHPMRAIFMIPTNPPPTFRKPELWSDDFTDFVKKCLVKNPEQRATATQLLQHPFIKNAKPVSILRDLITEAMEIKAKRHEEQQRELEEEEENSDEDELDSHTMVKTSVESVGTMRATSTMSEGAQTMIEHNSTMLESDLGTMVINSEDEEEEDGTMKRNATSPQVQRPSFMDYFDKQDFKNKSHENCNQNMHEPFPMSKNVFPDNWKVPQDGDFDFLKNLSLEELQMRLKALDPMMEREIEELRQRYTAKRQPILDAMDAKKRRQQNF
Nature of the assay: Selectivity interaction (ActivX KiNativ screen (kinase selectivity in THP-1 cell lysates)) EUB0000639a STK3. Particulars: lysate, at 0.04 µM. The class given is subcellular.

The target in assay [8] is Protein kinase C beta type (Homo sapiens, UniProt P05771).
Chain of Protein kinase C beta type (P05771 whole entry): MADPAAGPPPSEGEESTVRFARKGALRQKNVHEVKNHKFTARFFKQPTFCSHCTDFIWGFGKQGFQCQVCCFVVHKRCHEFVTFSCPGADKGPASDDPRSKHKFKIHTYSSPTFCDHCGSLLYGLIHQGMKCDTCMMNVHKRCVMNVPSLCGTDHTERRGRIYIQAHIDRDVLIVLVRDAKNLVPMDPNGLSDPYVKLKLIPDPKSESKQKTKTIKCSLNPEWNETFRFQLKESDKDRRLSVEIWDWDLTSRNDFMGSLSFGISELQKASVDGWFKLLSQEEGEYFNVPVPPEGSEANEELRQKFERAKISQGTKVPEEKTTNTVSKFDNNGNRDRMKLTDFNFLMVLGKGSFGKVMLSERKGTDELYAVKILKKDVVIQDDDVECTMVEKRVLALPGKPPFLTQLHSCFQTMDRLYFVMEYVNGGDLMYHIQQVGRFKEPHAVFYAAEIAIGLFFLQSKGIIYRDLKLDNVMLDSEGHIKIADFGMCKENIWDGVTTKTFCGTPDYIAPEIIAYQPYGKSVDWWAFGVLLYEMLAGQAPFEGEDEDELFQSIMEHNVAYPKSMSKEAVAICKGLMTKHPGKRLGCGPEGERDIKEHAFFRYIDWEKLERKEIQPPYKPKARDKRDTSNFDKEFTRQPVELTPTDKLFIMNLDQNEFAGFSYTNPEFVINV
Assay [9] addresses Phosphatidylinositol 4-phosphate 5-kinase type-1 gamma (Homo sapiens) (UniProt O60331). Description: Selectivity interaction (KinomeScan (DiscoverX)) EUB0000229b PIP5K1C. Particulars: at 10 µM.
In assay [10] the target is Bromodomain adjacent to zinc finger domain protein 1A (Homo sapiens) (UniProt Q9NRL2). Nature of the assay: Selectivity interaction (Human bromodomain panel (DSF assay)) EUB0000233b BAZ1A. On the technique in general: In DSF a fluorescence change marks the thermal transition of the protein.
Chain of Bromodomain adjacent to zinc finger domain protein 1A (Homo sapiens) (Q9NRL2 whole entry, the tested form may be a part): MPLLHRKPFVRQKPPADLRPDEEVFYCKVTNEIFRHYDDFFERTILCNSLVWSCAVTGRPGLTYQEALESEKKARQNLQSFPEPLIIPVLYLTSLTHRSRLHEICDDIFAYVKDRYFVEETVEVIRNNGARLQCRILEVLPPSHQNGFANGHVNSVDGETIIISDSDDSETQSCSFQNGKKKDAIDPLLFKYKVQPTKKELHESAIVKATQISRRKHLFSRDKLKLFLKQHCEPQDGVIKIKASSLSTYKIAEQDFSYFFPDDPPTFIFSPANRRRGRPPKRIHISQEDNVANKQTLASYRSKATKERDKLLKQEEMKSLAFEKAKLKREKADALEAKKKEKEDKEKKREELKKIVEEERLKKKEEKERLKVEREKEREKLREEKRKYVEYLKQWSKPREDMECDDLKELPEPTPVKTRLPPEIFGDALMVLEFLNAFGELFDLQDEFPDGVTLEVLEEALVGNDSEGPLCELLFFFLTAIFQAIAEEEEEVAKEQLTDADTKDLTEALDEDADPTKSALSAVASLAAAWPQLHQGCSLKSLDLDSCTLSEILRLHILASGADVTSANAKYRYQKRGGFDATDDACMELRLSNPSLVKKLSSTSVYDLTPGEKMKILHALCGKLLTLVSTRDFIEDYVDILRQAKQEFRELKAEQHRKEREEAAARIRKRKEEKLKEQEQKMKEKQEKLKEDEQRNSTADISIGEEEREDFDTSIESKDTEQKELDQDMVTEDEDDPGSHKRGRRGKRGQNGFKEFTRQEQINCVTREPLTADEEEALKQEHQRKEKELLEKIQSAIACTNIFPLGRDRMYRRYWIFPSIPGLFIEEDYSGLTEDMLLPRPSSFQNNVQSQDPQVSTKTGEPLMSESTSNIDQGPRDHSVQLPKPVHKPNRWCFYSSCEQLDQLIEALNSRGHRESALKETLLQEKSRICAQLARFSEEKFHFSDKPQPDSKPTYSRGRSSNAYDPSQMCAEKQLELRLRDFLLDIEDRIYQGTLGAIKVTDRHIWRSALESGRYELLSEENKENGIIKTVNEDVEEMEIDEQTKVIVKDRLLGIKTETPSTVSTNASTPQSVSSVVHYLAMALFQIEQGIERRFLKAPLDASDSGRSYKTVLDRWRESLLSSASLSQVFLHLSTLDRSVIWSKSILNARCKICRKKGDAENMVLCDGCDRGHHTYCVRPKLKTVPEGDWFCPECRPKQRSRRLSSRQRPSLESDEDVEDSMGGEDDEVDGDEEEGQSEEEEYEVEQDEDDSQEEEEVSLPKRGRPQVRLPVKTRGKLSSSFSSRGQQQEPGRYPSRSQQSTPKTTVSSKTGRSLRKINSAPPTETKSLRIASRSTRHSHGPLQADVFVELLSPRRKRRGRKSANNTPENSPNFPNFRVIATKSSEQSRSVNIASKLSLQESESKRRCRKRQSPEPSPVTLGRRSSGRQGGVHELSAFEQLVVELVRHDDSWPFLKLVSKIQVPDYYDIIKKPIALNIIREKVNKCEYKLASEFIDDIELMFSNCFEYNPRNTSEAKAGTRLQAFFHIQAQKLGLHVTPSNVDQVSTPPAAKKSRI
In assay [11] the target is Dual specificity mitogen-activated protein kinase kinase 1 (Homo sapiens, UniProt Q02750). Description: Selectivity interaction (ActivX KiNativ screen (ex vivo kinase selectivity in human PBMCs)) EUB0001619a MAP2K1. The class given is cell-based. Particulars: PBMC, at 1 µM.
Chain of Dual specificity mitogen-activated protein kinase kinase 1 (Q02750 whole entry): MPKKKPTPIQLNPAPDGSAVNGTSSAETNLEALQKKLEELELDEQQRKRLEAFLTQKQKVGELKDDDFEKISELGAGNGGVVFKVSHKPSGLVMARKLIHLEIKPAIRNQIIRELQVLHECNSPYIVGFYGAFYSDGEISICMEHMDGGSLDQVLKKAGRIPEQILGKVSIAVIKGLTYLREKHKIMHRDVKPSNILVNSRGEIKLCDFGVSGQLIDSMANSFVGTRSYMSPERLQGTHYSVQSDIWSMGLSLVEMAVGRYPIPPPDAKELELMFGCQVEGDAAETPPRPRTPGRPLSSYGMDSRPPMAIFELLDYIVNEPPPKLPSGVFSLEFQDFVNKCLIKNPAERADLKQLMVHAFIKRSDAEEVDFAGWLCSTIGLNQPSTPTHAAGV

Chain of Dual specificity tyrosine-phosphorylation-regulated kinase 1B (Q9Y463 whole entry, the tested form may be a part): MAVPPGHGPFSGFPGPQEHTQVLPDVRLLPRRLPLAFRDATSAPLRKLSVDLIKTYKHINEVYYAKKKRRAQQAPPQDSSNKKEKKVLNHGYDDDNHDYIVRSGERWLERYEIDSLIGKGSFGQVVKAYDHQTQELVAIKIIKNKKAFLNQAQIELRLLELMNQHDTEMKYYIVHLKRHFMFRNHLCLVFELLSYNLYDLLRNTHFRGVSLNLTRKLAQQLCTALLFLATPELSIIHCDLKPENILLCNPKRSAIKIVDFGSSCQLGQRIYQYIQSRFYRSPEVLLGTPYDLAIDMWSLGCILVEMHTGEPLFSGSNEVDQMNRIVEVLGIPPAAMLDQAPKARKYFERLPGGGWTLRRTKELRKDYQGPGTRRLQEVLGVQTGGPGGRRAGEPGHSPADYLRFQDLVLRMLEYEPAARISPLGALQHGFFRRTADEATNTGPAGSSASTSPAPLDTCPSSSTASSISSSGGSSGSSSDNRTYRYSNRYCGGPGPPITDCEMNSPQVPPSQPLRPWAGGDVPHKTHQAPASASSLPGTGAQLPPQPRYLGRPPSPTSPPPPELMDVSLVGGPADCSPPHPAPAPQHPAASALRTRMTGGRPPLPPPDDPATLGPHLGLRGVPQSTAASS
Chain of Phosphatidylinositol 4-phosphate 5-kinase type-1 gamma (Homo sapiens) (O60331 whole entry, the tested form may be a part): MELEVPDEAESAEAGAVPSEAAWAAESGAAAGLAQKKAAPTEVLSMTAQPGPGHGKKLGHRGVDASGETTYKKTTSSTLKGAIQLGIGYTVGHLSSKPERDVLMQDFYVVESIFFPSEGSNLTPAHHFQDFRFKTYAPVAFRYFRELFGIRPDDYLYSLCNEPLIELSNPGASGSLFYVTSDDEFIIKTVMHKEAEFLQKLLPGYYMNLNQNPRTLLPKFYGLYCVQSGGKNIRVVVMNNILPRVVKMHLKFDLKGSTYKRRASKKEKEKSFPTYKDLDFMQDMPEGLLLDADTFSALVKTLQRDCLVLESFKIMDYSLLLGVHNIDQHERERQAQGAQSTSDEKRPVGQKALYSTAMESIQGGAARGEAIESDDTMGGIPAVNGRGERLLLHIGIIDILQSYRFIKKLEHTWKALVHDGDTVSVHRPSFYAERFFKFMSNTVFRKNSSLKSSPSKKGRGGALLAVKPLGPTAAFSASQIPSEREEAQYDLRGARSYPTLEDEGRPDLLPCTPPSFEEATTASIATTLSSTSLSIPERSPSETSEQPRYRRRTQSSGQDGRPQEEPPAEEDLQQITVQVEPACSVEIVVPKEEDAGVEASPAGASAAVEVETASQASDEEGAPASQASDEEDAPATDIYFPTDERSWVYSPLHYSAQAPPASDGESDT
Chain of Serine/threonine-protein kinase RIO2 (Homo sapiens) (Q9BVS4 whole entry, looked up): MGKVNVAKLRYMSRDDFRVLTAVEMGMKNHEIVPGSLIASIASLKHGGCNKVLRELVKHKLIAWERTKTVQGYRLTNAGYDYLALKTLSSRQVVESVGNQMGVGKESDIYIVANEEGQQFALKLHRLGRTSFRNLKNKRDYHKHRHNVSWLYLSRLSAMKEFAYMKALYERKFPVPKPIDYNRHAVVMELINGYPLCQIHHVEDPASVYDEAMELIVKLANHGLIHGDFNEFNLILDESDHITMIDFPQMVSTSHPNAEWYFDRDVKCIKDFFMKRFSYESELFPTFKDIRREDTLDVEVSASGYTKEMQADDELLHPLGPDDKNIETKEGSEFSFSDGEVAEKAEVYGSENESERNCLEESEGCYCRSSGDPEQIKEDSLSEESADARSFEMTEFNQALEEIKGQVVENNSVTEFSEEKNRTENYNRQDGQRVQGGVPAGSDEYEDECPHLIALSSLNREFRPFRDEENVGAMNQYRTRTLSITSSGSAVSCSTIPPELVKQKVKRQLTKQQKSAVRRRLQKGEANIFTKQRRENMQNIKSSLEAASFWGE

Turning to `CN(C)C/C=C/C(=O)Nc1ccc(C(=O)N2CCCC(Nc3ncc(Cl)c(-c4c[nH]c5ccccc45)n3)C2)cc1` (stereo unspecified), the % of control in assay [1] came out at 100%.

For the compound `CN(C)CCOc1ccc(-c2nc(-c3ccncc3)c(-c3ccc4c(c3)CC/C4=N\O)[nH]2)cc1`, the % of control in assay [2] worked out at 97%; in assay [3], 76%.

Usually IC50 stands for the point on the concentration scale where inhibition reaches its midpoint. A higher IC50 goes with a need for much substance. Consider `CN(C)CC#Cc1ccc2[nH]c3c(c2c1)-c1nc(N)ncc1CCC3`, for which the IC50 in assay [4] was determined as 380 nM.

Regarding `Cc1cc(CN)cc(C)c1-c1ncn(C)c1-c1cncn1C`, the dTagg in assay [5] worked out at 0.9 K.

In [6], `CNC(=O)Nc1ccc(-c2nc(N3CC4CCC(C3)O4)c3cnn(C4CCC5(CC4)OCCO5)c3n2)cc1` registered a % of control of 90%.

Compound `CC[C@@H]1[C@H](F)C(=O)N[C@@H]1COc1nccc2cc(C(N)=O)c(OC)cc12` [ZIMLOVISERTIB] came in with a % of inhibition in assay [7] of 2.2%.

In turn, `CCc1cccc(CC)c1NC(=O)c1nn(C)c2c1CCc1cnc(Nc3ccc(C(=O)NC4CCN(C)CC4)cc3OC(F)(F)F)nc1-2` came in with an IC50 in assay [8] greater than 10000 nM.

Take `COc1cc(N(C)c2ccnc3ccc(C(F)(F)F)cc23)cc(OC)c1OC`: the % binding in assay [9] came to 53%.

In assay [10], `CN(C)CCCOc1ccc(-c2cc(NCCCn3cccn3)nc(S(C)(=O)=O)n2)cc1` had a dTM of less than 2 K.

`N#Cc1cccc(-c2c[nH]c3ncnc(N4CCOCC4)c23)c1` gave a % of inhibition in assay [11] of 0%.
